System: Histophilus somni
Experiment: minimum inhibitory concentration (MIC)
Protocol: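 Broth microdilution MIC (Sensititre BOPO7F bovine plate, CLSI methods) of 19 antimicrobials against field isolates of P. multocida, M. haemolytica, H. somni (deep nasopharyngeal swabs) and E. coli, Enterococcus spp. (rectal swabs) from weaned dairy heifers. Incubation 16-24 h at 35 C. MIC is the lowest concentration preventing visible growth. Values with <= or > lie at the tested range limits. Trimethoprim-sulfamethoxazole is given as the trimethoprim component of a 1:19 mixture.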

Measured: minimum inhibitory concentration

CNC(C)C1CCC(N)C(OC2C(N)CC(N)C(OC3OCC(C)(O)C(NC)C3O)C2O)O1 (configuration not stated) [Gentamicin]
> 16 µg/mL: isolate (source animal id): 130 | isolate (source animal id): 146 | isolate (source animal id): 265 | isolate (source animal id): 272 | isolate (source animal id): 280
16 µg/mL: isolate (source animal id): 15 | isolate (source animal id): 18 | isolate (source animal id): 23 | isolate (source animal id): 83 | isolate (source animal id): 92 | isolate (source animal id): 99 | isolate (source animal id): 100 | isolate (source animal id): 105 | isolate (source animal id): 107 | isolate (source animal id): 108 | isolate (source animal id): 109 | isolate (source animal id): 110 | isolate (source animal id): 147 | isolate (source animal id): 154 | isolate (source animal id): 156 | isolate (source animal id): 288 | isolate (source animal id): 292 | isolate (source animal id): 336 | isolate (source animal id): 337
4 µg/mL: isolate (source animal id): 7 | isolate (source animal id): 14 | isolate (source animal id): 45 | isolate (source animal id): 53 | isolate (source animal id): 88 | isolate (source animal id): 93 | isolate (source animal id): 117 | isolate (source animal id): 121 | isolate (source animal id): 141 | isolate (source animal id): 212 | isolate (source animal id): 258 | isolate (source animal id): 262 | isolate (source animal id): 264 | isolate (source animal id): 269 | isolate (source animal id): 274 | isolate (source animal id): 283
≤ 1 µg/mL: isolate (source animal id): 17 | isolate (source animal id): 20 | isolate (source animal id): 176 | isolate (source animal id): 183 | isolate (source animal id): 186 | isolate (source animal id): 230 | isolate (source animal id): 238 | isolate (source animal id): 243 | isolate (source animal id): 245 | isolate (source animal id): 247 | isolate (source animal id): 248 | isolate (source animal id): 250 | isolate (source animal id): 251 | isolate (source animal id): 254 | isolate (source animal id): 276
2 µg/mL: isolate (source animal id): 228 | isolate (source animal id): 233 | isolate (source animal id): 239 | isolate (source animal id): 241 | isolate (source animal id): 242 | isolate (source animal id): 246 | isolate (source animal id): 252
8 µg/mL: isolate (source animal id): 3 | isolate (source animal id): 4 | isolate (source animal id): 123 | isolate (source animal id): 124 | isolate (source animal id): 127 | isolate (source animal id): 128 | isolate (source animal id): 132 | isolate (source animal id): 135 | isolate (source animal id): 140 | isolate (source animal id): 142 | isolate (source animal id): 144 | isolate (source animal id): 151 | isolate (source animal id): 153 | isolate (source animal id): 157 | isolate (source animal id): 196 | isolate (source animal id): 198 | isolate (source animal id): 200 | isolate (source animal id): 206 | isolate (source animal id): 208 | isolate (source animal id): 210 | isolate (source animal id): 215 | isolate (source animal id): 216 | isolate (source animal id): 218 | isolate (source animal id): 219 | isolate (source animal id): 224 | isolate (source animal id): 259 | isolate (source animal id): 266 | isolate (source animal id): 267 | isolate (source animal id): 271 | isolate (source animal id): 278 | isolate (source animal id): 281 | isolate (source animal id): 291 | isolate (source animal id): 296 | isolate (source animal id): 306 | isolate (source animal id): 341
